Assay results published in ChEMBL document CHEMBL4118182, “Straightforward hit identification approach in fragment-based discovery of bromodomain-containing protein 4 (BRD4) inhibitors” (Bioorg Med Chem, 2018).
The source made the active and inactive calls. The rule behind the calls is not given here.

Experiments:
[1] = target: T1, Bromodomain-containing protein 4 (Homo sapiens, UniProt O60885); experiment: Inhibition of recombinant human N-terminal His6-tagged BRD4 by TR-FRET assay
[2] = target: T1, Bromodomain-containing protein 4; experiment: Binding affinity to recombinant human N-terminal His6-tagged BRD4 bromodomain 1 (44 to 168 residues) expressed in Escherichia coli BL21(DE3) assessed as increase in melting temperature at 50 to 200 uM by differential scanning fluorimetry
[3] = target: T1, Bromodomain-containing protein 4; experiment: Binding affinity to recombinant human N-terminal His6-tagged BRD4 bromodomain 1 (44 to 168 residues) expressed in Escherichia coli BL21(DE3) assessed as change in melting temperature at 40 uM by differential scanning fluorimetry
[4] = Solubility of the compound in aqueous buffer at 1 mM; assay type: physicochemical; conditions: 1000 µM
[5] = target: T1, Bromodomain-containing protein 4; experiment: Binding affinity to recombinant human N-terminal His6-tagged BRD4 bromodomain 1 (44 to 168 residues) expressed in Escherichia coli BL21(DE3) assessed as change in melting temperature at 10 uM by differential scanning fluorimetry
[6] = target: T1, Bromodomain-containing protein 4; experiment: Binding affinity to recombinant human N-terminal His6-tagged BRD4 bromodomain 1 (44 to 168 residues) expressed in Escherichia coli BL21(DE3) assessed as change in melting temperature at 20 uM by differential scanning fluorimetry
[7] = target: T1, Bromodomain-containing protein 4; experiment: Inhibition of recombinant human N-terminal His6-tagged BRD4 at 20 uM by TR-FRET assay relative to control
[8] = target: Carbonic anhydrase 2 (Bos taurus) (UniProt P00921); experiment: Binding affinity to bovine carbonic anhydrase-2 assessed as change in melting temperature at 20 uM by differential scanning fluorimetry
Carbonic anhydrase 2 (Bos taurus), sequence (P00921 2-260 limits assumed): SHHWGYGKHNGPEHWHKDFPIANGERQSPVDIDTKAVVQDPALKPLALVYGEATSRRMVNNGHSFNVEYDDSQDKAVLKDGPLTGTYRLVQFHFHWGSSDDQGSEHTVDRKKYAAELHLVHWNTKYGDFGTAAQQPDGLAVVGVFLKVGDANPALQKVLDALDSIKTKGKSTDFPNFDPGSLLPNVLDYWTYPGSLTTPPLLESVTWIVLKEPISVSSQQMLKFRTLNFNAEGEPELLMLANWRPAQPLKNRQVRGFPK

[9] = Solubility of the compound in DMSO at 200 mM; assay type: physicochemical; conditions: 200000 µM

| IC50 [1] [µM] | Activity [2] | deltaTm [3] [K] | solubility [4] | deltaTm [5] [K] | ΔTm [6] [°C] | inhibition [7] | deltaTm [8] [K] | solubility [9] | Structure (SMILES) |
| --- | --- | --- | --- | --- | --- | --- | --- | --- | --- |
| 15.8 | – | – | – | – | – | – | – | – | COc1cccc(C(=O)Nc2ccc3c(c2)n(C)c(=O)n3C)c1 |
| 3 | Active | > 1 | Soluble | > 0.5 | 1.2 | 64.4% | > 0.5 | Soluble | Cn1cc(NC(=O)c2occc2COc2ccccc2)ccc1=O |
| – | Active | > 1 | Soluble | > 0.5 | – | inactive | > 0.5 | Soluble | Cc1nc(-c2cccc(N)c2)cs1 |
| – | Active | > 1 | Soluble | > 0.5 | -2.1 | – | > 0.5 | Soluble | Cc1nc2ccc(C(=O)O)cc2o1 |
| > 100 | Active | > 1 | Soluble | > 0.5 | 2.01 | 72.4% | > 0.5 | Soluble | Cc1ccc(C(=O)Nc2ccc3nc(N4CCCC4)sc3c2)cc1[N+](=O)[O-] |
| – | Active | > 1 | Soluble | > 0.5 | 2.8 | – | > 0.5 | Soluble | CC1Oc2ccc(N)cc2NC1=O (centres undefined) |
| 60 | Active | > 1 | Soluble | > 0.5 | 0.82 | 67% | > 0.5 | Soluble | COc1ccc(OC)c(CCC(=O)Nc2ccc3c(c2)n(C)c(=O)n3C)c1 |
| 27 | Active | > 1 | Soluble | > 0.5 | 1.32 | 63.3% | > 0.5 | Soluble | Cc1cc2cc(NC(=O)c3ccc(Oc4ccc(C(F)(F)F)cn4)cc3)ccc2[nH]1 |
| – | Active | > 1 | Soluble | > 0.5 | 2.1 | – | > 0.5 | Soluble | CC1(C)C(=O)Nc2cc(C(=O)O)ccc21 |
| > 100 | inactive | > 1 | Soluble | > 0.5 | -1.85 | 68.2% | > 0.5 | Soluble | CC1CCCC(C)N1C(=O)CSc1nc2sc3c(c2c(=O)n1C)CCCC3 (centres undefined) |
| 21 | Active | > 1 | Soluble | > 0.5 | 1.39 | 63.4% | > 0.5 | Soluble | COCCOc1ccccc1CNc1ccc2c(c1)n(C)c(=O)n2C |
| 1.9 | Active | > 1 | Soluble | > 0.5 | 1.88 | 76.5% | > 0.5 | Soluble | Cn1c(=O)n(C)c2cc(NC(=O)c3cc4c(s3)CCC4)ccc21 |
| – | Active | > 1 | Soluble | > 0.5 | 1.7 | Active | > 0.5 | Soluble | Nc1ccc2nc(N3CCCC3)sc2c1 |
| 2.5 | – | – | – | – | – | – | – | – | Cc1ccc(S(=O)(=O)Nc2ccc3c(c2)n(C)c(=O)n3C)c(C)c1 |
| – | Active | > 1 | Soluble | > 0.5 | 1.4 | Active | > 0.5 | Soluble | Cc1cc2cc(N)ccc2[nH]1 |
| – | Active | > 1 | Soluble | > 0.5 | 2.8 | Active | > 0.5 | Soluble | Cn1c(=O)n(C)c2cc(N)ccc21 |
| 7.4 | Active | > 1 | Soluble | > 0.5 | 1.2 | 80.5% | > 0.5 | Soluble | Cc1nc(-c2cccc(NC(=O)c3ccc4[nH]c(C)c(C)c4c3)c2)cs1 |
| > 100 | inactive | > 1 | Soluble | > 0.5 | -2.63 | 65.9% | > 0.5 | Soluble | O=C1C(=O)N(CCCOc2ccccc2)c2ccc(Cl)cc21 |
| 24 | Active | > 1 | Soluble | > 0.5 | 1.39 | 72.7% | > 0.5 | Soluble | Cc1cc2cc(NC(=O)c3sc4nc(C(F)(F)F)ccc4c3C)ccc2[nH]1 |
